The subject of assay [1] is rat B cells derived from whole blood. As to the kind of experiment: Determination of rat B cell activation in whole blood (CD86 upregulation after anti-IgM and rIL-4). In kind it is cell-based. As to conditions: anti-IgM + rIL-4 stimulation, CD86 on CD45RA+ B cells, read-out: RWB/IC50 CD86. On the procedure:
2.3 Determination of Rat B Cell Activation
PI3Kδ has been recognized to modulate B cell function when cells are stimulated through the B cell receptor (BCR) (Okkenhaug et al. Science 297:1031 (2002). For assessing the inhibitory property of compounds on B cell activation, the upregulation of activation markers CD86 on rat B cells derived from whole blood is measured after stimulation with anti-IgM and recombinant IL-4. The CD86 molecule (also known as B7-2) is primarily expressed on antigen-presenting cells, including B cells. Resting B cells express CD86 at low levels, but upregulate it following stimulation of e.g. the BCR or IL-4 receptor. CD86 on a B cell interacts with CD28 on T cells. This interaction is required for optimal T cell activation and for the generation of an optimal IgG1 response (Carreno et al. Annu Rev Immunol. 20:29 (2002)).
Whole blood was collected from the abdominal aorta adult male Lewis rats (LEW/HanHsd) oby using a 10 ml syringe with hypodermic needle pre-coated with sodium heparin. Blood was transferred into 50 ml Falcon tubes and the anticoagulant concentration was adjusted to 100 U/ml.
For assessment of the in vitro effects of immunosuppressive drugs, heparinized blood was prediluted to 50% with medium. As medium served DMEM high glucose (Animed cat#1-26F01-I) supplemented with 100 U/ml penicillin, […], 2 mM L-glutamin, 50 mg/ml dextran 40 and 5% fetal calf serum (FCS, Fetaclone I, Gibco #10270-106). Then, 190 μl prediluted blood was spiked with 10 μl of pre-diluted test compound in 96 well U-bottomed microtiter plates (Nunc) resulting in a 3-fold serial dilution with a concentration range from 20 to 0.0003 μM. Control wells were pretreated with DMSO to obtain a final concentration of 0.5% DMSO. Cultures were set up in duplicates, mixed well by agitation on a plate shaker (Heidolph Titramax 101; 30 sec, speed 900), pipetting up and down and agitated on the plate shaker again. Cultures were incubated at 37° C., 5% CO2 for 1 hr. Then, 20 μl of polyclonal goat anti-rat IgM Ab (Serotec, cat#302001) and 10 μl of diluted recombinant rIL-4 (Immunotools #340085) were added to obtain final concentrations of 30 μg/ml and 5 ng/ml, respectively. Plates were mixed by agitation on a plate shaker as above and incubated for 24 hrs at 37° C., 5% CO2.
After incubation, 15 μl of a 25 mM EDTA solution was added per well and shaken for 15 min to detach adherent cells. For analysis of surface activation markers, samples were then stained with PE-Cy5-labeled anti-ratCD45RA (BD cat#557015) to allow gating on B cells in FACS analysis. In addition, samples were stained with PE-labeled anti-rat CD86 (BD cat#551396). All staining procedures were performed at rt for 30 min in the dark. After incubation, samples were transferred to 96-deep well V-bottomed microtiter plates (Corning #396096) containing 2 ml/well of BD Lysing Solution (BD #349202). After lysis of erythrocytes samples were washed with 2 ml of CellWASH (BD #349524). Data was acquired on an LSRII or FACScalibur flow cytometer (BD Biosciences) using Cellquest Plus or DIVA (version 6.1.1) software, respectively. Lymphocytes were gated in the FSC/SSC dot blot according to size and granularity and further analyzed for expression of CD45RA and activation markers. Data were calculated from dot blots or histograms as percentage of cells positively stained for activation markers within the CD45RA+ population.
The percentage inhibition of B cell activation after exposure to drug was calculated by the following formula: […]
ORIGIN 7 software (OriginLab Corporation, Northampton, Mass.) was used for non-linear regression curve fitting.

Assay [2] addresses PI3K alpha (Homo sapiens (Human), UniProt P42336). Briefly: Enzymatic PI3K alpha isoform inhibition (lipid kinase activity, Kinase-Glo luminescence). It counts as biochemical. The conditions noted are these: Enzymatic assay. A digest of the protocol:
(§1)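 IC50s derive from 4-parameter logistic fits of % inhibition across 8 concentrations (usually 10 to 0.003 μM). Lipid kinase reaction: PI3K (10 nM) plus phosphatidylinositol (5 μg/mL) started with 2 μM ATP, stopped near 50% ATP depletion; leftover ATP quantified by Kinase-Glo luminescence.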
(In Kinase-Glo more light means more ATP remaining.)

In assay [3] the target is PI3K delta (Homo sapiens (Human), UniProt O00329). As to the kind of experiment: Enzymatic PI3K delta isoform inhibition (lipid kinase activity, Kinase-Glo luminescence). In kind it is biochemical. As to conditions: Enzymatic assay. A digest of the protocol:
as §1

The target in assay [4] is myristoylated catalytic subunit of human PI3K delta in Rat-1 cells (Homo sapiens (Human), UniProt O00329). Briefly: PI3K-mediated Akt 1/2 (S473) phosphorylation in Rat-1 cells, PI3K delta. It counts as cell-based. As to conditions: Rat-1 cells overexpressing myristoylated human PI3K delta; p-Akt (S473) AlphaScreen SureFire; read-out: Cell PI3Kδ/ IC50. As for the experimental part: 2.1 Phosphoinositide-3 Kinase (PI3K)-Mediated Akt 1/2 (S473) Phosphorylation in Rat-1 Cells
myristoylated catalytic subunit of human PI3K delta in Rat-1 cells, sequence (O00329 whole entry): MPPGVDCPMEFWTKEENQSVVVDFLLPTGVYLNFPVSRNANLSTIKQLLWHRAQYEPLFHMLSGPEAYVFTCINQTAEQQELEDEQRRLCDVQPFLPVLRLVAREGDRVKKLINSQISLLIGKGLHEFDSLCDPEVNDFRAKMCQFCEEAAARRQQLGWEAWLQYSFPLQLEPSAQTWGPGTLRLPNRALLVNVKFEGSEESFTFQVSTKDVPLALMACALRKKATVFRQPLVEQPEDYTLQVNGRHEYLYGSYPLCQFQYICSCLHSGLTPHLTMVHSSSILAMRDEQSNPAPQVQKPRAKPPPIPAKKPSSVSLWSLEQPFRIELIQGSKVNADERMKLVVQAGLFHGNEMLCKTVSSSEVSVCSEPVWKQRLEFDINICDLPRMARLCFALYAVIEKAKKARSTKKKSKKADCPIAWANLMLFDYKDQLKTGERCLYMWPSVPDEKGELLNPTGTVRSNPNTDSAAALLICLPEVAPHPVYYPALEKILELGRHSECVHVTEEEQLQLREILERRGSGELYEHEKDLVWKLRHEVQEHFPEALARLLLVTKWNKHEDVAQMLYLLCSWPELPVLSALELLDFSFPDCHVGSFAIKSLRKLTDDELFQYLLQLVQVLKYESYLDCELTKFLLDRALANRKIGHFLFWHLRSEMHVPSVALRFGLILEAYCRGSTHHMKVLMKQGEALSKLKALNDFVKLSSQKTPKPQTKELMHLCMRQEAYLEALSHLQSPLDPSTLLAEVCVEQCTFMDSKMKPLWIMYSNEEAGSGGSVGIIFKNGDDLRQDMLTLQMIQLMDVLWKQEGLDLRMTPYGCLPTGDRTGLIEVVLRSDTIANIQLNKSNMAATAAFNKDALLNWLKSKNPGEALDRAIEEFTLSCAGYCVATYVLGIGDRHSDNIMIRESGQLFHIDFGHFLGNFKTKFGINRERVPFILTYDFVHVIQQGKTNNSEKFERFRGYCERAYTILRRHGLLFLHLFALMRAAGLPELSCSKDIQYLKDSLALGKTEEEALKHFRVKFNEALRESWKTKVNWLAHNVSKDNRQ
Rat-1 cells stably overexpressing a myristoylated form of the catalytic subunit of human phosphoinositide-3 kinase (PI3K) alpha, beta or delta were plated in 384-well plates at a density of 7500 (PI3K alpha), 6200 (PI3K beta), or 4000 (PI3K delta) cells in 30 ul complete growth medium (Dulbecco's modified Eagle's medium (DMEM high glucose) supplemented with 10% (v/v) fetal bovine serum, 1% (v/v) MEM non essential amino acids, 10 mM HEPES, 2 mM L-glutamine, 10 μg/mL puromycin and 1% (v/v) Penicillin/Streptomycin) and were incubated at […]/5% CO2/95% humidity for 24 h. Compounds were diluted in 384-well compound plates to obtain 8-point serial dilutions for 40 test compounds in 90% DMSO, as well as 4 reference compounds plus 16 high controls and 16 low (inhibited) controls. Predilution plates were prepared by dispensing pipetting 250 nl of compound solutions into 384-well polypropylen plates using a Hummingwell nanoliter dispensor. Compounds were prediluted by the addition of 49.75 ul complete growth medium. 10 ul of prediluted compound solution were transferred to the cell plate using a 384-well pipettor, resulting in a final DMSO concentration of 0.11%.
Cells were incubated for 1 h at […]/5% CO2/95% humidity. The supernatant was removed, the cells were lysed in 20 ul of lysis buffer for AlphaScreen® SureFire® detection.
For detection of p-AKT(Ser473), the SureFire® p-Akt 1/2 (Ser473) Assay Kit (PerkinElmer, U.S.A) was used. 5 ul of cell lysate was transferred to 384-well low volume Proxiplates for detection using a 384-well pipettor. Addition of AlphaScreen® SureFire® reagents was done according to the manufacturer's protocol. First, 5 ul of reaction buffer plus activation buffer mix containing AlphaScreen® acceptor beads was added, the plate was sealed, and incubated on a plate shaker for 2 hours at room temperature. Second, 2 ul of dilution buffer containing AlphaScreen® donor beads was added, and the plate was incubated on plate shaker as above for a further 2 hours. The plate was read on an AlphaScreen® compatible plate reader, using standard AlphaScreen® settings.
Background: Alpha assays give light when donor and acceptor beads are brought close together.

Structures are written as SMILES.

PI3K alpha, sequence (P42336 other isoform, or with tags, fused parts or gaps): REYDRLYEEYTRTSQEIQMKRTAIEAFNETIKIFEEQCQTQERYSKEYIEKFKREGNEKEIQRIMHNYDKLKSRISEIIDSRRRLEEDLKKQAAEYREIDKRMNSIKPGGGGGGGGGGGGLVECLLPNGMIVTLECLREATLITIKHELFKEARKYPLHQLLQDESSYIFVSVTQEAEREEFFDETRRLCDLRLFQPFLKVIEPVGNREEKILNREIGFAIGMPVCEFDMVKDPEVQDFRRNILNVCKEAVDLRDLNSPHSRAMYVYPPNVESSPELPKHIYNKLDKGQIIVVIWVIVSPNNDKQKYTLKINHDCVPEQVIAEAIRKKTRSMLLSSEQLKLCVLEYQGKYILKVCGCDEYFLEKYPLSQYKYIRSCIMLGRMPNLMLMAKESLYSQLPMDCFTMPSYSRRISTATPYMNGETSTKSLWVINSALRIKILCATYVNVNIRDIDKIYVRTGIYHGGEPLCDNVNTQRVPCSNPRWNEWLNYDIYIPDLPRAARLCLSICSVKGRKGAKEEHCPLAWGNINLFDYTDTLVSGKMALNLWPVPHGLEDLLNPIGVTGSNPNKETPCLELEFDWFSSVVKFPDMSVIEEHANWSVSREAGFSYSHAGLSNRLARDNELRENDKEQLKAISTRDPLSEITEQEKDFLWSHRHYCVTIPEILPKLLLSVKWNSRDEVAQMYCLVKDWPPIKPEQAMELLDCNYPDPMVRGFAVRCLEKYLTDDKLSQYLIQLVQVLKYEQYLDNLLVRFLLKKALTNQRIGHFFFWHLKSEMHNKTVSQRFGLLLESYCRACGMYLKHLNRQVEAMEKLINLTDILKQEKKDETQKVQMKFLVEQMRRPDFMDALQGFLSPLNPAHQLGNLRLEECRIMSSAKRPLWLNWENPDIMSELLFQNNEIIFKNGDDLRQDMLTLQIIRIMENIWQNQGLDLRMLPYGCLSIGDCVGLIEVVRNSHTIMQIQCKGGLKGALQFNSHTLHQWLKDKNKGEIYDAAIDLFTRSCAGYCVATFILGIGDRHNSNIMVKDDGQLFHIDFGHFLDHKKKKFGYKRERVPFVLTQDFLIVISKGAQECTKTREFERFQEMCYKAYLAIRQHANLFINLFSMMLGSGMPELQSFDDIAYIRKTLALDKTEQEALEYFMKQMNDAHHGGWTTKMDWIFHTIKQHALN
PI3K delta, sequence (O00329 other isoform, or with tags, fused parts or gaps linker GGGGGG): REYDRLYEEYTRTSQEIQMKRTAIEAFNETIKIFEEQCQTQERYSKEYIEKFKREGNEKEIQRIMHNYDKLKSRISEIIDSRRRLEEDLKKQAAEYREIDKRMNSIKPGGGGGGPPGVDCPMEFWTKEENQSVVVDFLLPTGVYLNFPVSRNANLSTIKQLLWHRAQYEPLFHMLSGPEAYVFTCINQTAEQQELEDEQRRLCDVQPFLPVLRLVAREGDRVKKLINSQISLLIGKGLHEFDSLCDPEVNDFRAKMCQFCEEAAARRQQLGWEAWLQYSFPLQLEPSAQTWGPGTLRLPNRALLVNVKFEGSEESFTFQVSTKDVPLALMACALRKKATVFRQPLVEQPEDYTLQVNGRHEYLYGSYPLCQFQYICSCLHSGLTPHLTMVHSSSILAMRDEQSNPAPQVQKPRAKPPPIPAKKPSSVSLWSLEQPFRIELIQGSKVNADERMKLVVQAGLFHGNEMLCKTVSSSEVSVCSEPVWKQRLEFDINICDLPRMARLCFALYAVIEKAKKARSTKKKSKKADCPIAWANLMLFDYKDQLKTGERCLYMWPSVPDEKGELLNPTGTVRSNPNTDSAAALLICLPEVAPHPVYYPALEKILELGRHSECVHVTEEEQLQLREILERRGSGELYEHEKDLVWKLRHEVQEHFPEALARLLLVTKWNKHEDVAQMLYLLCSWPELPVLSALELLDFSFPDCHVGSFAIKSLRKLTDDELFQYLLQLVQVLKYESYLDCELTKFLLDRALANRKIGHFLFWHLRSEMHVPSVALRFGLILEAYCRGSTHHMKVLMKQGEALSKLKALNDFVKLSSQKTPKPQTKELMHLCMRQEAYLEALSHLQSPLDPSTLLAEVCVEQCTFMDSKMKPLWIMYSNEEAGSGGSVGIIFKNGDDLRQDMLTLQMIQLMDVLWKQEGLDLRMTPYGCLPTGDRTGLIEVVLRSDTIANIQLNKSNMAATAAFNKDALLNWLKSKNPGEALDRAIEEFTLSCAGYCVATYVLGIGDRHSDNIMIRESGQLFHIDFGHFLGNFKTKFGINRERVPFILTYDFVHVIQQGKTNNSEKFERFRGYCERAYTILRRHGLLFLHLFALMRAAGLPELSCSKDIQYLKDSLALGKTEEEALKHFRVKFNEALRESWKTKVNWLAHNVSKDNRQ

Turning to `COc1ncc(N2CCOc3cnc(O[C@H]4CCN(C(=O)C5CCS(=O)(=O)CC5)C4)cc32)cc1C` [Example F1, (1,1-Dioxo-hexahydro-1lambda*6*-thiopyran-4-yl)-{(S)-3-[1-(6-methoxy-5-methyl-pyridin-3-yl)-2,3-dihydro-1H-pyrido[3,4-b][1,4]oxazin-7-yloxy]-pyrrolidin-1-yl}-methanone], the IC50 in assay [1] turned out to be 7 nM.

As for `COc1ncc(N2CCOc3cnc(O[C@H]4CCN(C(=O)c5cn(C)cn5)C4)cc32)cc1F` [Example F3, {(S)-3-[1-(5-Fluoro-6-methoxy-pyridin-3-yl)-2,3-dihydro-1H-pyrido[3,4-b][1,4]oxazin-7-yloxy]-pyrrolidin-1-yl}-(1-methyl-1H-imidazol-4-yl)-methanone], the IC50 in assay [2] is 337 nM; in assay [3], 6 nM; in assay [4], 50 nM.

On to `COc1ncc(N2CCOc3cnc(O[C@H]4CCN(C(=O)c5ncn(C)c5N)C4)cc32)cc1C(F)(F)F` [Example G3, (5-Amino-1-methyl-1H-imidazol-4-yl)-{(S)-3-[1-(6-methoxy-5-trifluoromethyl-pyridin-3-yl)-2,3-dihydro-1H-pyrido[3,4-b][1,4]oxazin-7-yloxy]-pyrrolidin-1-yl}-methanone], for which the IC50 was 372 nM in assay [2] and 56 nM in assay [3].

In the case of `COc1ncc(N2CCOc3ccc(O[C@H]4CCN(C(=O)C5CCOCC5)C4)cc32)cc1F` [Example B18], the IC50 in assay [2] was determined as 723 nM; in assay [3], 12 nM.

Regarding `O=C(C1CCOCC1)N1CC[C@H](Oc2ccc3c(c2)N(c2cncc(Cl)c2)CCO3)C1` [Example A34, {(S)-3-[4-(5-Chloro-pyridin-3-yl)-3,4-dihydro-2H-benzo[1,4]oxazin-6-yloxy]-pyrrolidin-1-yl}-(tetrahydro-pyran-4-yl)-methanone], the results for the IC50 in assay [2] and in assay [3] were 773 nM and 9 nM, respectively.

On to `CCC(=O)N1CC[C@H](Oc2ccc3c(c2)N(c2cnc(S(C)(=O)=O)c(C)c2)CCO3)C1` [Example B97, 1-{(S)-3-[4-(6-Methanesulfonyl-5-methyl-pyridin-3-yl)-3,4-dihydro-2H-benzo[1,4]oxazin-6-yloxy]-pyrrolidin-1-yl}-propan-1-one], for which the results for the IC50 in assay [2] and in assay [3] were 476 nM and 21.5 nM, respectively.

Take `COc1ncc(N2CCOc3ccc(O[C@H]4CCN(C(=O)C5CCOC5)C4)cc32)cc1C#N` (single isomer, unassigned) [Example D28]: the IC50 is 411 nM in assay [2] and 5 nM in assay [3].

For `COc1ncc(N2CCOc3cnc(OC4CCN(C(=O)C5CCS(=O)(=O)CC5)C4)cc32)cc1C` (stereo not drawn) [Example F12, (1,1-Dioxo-hexahydro-1lambda*6*-thiopyran-4-yl)-{3-[1-(6-methoxy-5-methyl-pyridin-3-yl)-2,3-dihydro-1H-pyrido[3,4-b][1,4]oxazin-7-yloxy]-pyrrolidin-1-yl}-methanone], the IC50 in assay [2] was 440 nM; in assay [3] it was below 3 nM.

As to `COc1ncc(N2CCOc3ccc(O[C@H]4CCN(C(=O)c5cccnc5)C4)cc32)cc1C#N` [Example C16, 2-Methoxy-5-{6-[(S)-1-(pyridine-3-carbonyl)-pyrrolidin-3-yloxy]-2,3-dihydro-benzo[1,4]oxazin-4-yl}-nicotinonitrile], the IC50 in assay [2] came out at 478 nM; in assay [3], 15 nM.

For `CCS(=O)(=O)N1CC[C@H](Oc2ccc3c(c2)N(c2cnc(S(C)(=O)=O)c(C)c2)CCO3)C1` [Example B84, 6-((S)-1-Ethanesulfonyl-pyrrolidin-3-yloxy)-4-(6-methanesulfonyl-5-methyl-pyridin-3-yl)-3,4-dihydro-2H-benzo[1,4]oxazine], the IC50 came out at 346 nM in assay [2] and 80 nM in assay [3].

As to `Cc1cc(N2CCOc3ccc(O[C@H]4CCN(C(=O)[C@H]5CC[C@@H](O)CC5)C4)cc32)cnc1S(C)(=O)=O` [Example B51, (4-Hydroxy-cyclohexyl)-{(S)-3-[4-(6-methanesulfonyl-5-methyl-pyridin-3-yl)-3,4-dihydro-2H-benzo[1,4]oxazin-6-yloxy]-pyrrolidin-1-yl}-methanone], the IC50 came out at 1030 nM in assay [2] and 10 nM in assay [3].

As to `Cc1cc(N2CCOc3ccc(O[C@H]4CCN(S(=O)(=O)C5CCOCC5)C4)cc32)cnc1S(C)(=O)=O` [Example B81, 4-(6-Methanesulfonyl-5-methyl-pyridin-3-yl)-6-[(S)-1-(tetrahydro-pyran-4-sulfonyl)-pyrrolidin-3-yloxy]-3,4-dihydro-2H-benzo[1,4]oxazine], the IC50 in assay [2] turned out to be 482 nM; in assay [3], 81 nM.

As for `COc1ncc(N2c3cc(O[C@H]4CCN(C(=O)C5CCOCC5)C4)ccc3OCC2C)cc1C#N` (stereo partly drawn) [Example C6, 2-Methoxy-5-{3-methyl-6-[(S)-1-(tetrahydro-pyran-4-carbonyl)-pyrrolidin-3-yloxy]-2,3-dihydro-benzo[1,4]oxazin-4-yl}-nicotinonitrile], the IC50 in assay [2] amounted to 4260 nM; in assay [3], 181 nM.

With `COc1ncc(N2CCOc3ccc(O[C@H]4CCN(C(=O)c5cncs5)C4)cc32)cc1C#N` [Example C14, 2-Methoxy-5-{6-[(S)-1-(thiazole-5-carbonyl)-pyrrolidin-3-yloxy]-2,3-dihydro-benzo[1,4]oxazin-4-yl}-nicotinonitrile], the IC50 in assay [2] is 250 nM; in assay [3] it was 5 nM.

Consider `COc1cc(N2CCOc3ccc(O[C@H]4CCN(C(=O)[C@H]5CC[C@H](O)CC5)C4)cc32)cnc1OC` [Example B66, {(S)-3-[4-(5,6-Dimethoxy-pyridin-3-yl)-3,4-dihydro-2H-benzo[1,4]oxazin-6-yloxy]-pyrrolidin-1-yl}-(4-hydroxy-cyclohexyl)-methanone], for which the IC50 came out at 446 nM in assay [2] and 11 nM in assay [3].

The values are drawn from US9539260B2, “Dihydro-benzo-oxazine and dihydro-pyrido-oxazine derivatives” (Novartis AG, priority 2012, dated 2017).
